Laboratory results taken from patent US20240263207A1, “IN VIVO FLUORINATION” (Danmarks Tekniske Universitet, priority 2018, published 2024).
Read-outs that look alike come from different tables or passages of the source.

Tests used:
[1] = tested on: XylS/Pm system; settings: Calero 2016; cited from earlier work
[2] = target: T1, nucleosidase, coded by the gene pfs (Escherichia coli, UniProt P0AF12); test: In vitro conversion of 5′-FDA by cell extracts expressing Pfs; format: biochemical, E. coli; settings: 20 hours
T1 construct: made in house; host or cells: Pseudomonas putida (pPS23 vector, XylS/Pm system; crude cell extract, not purified)
Method: (§1) The E. coli purine nucleotide phosphorylase, coded by the gene deoD (SEQ ID NO: 14), as well as the nucleosidase pfs (SEQ ID NO: 16), were amplified by PCR from the genome of the strain MG1655 using reverse primers containing the sequence to introduce a 6×His tag, in order to allow purification if needed. These fragments were respectively mixed with a PCR fragment amplified with USER primers of the pPS23 vector, containing the XylS/Pm expression system. The cloning was performed by USER cloning as described above.
(§2) We furthermore explored the possibility that 5′-FDA could be utilized for other enzymes different to the endogenous of the fluorination pathway from Streptomyces. For this purpose, we used another PNP and a nucleosidase of E. coli. The E. coli PNP, coded by the gene deoD (SEQ ID NO: 14), is able to perform the same reaction as FlB1, and produce 5′-FDRP, whereas the nucleosidase, coded by the gene pfs (SEQ ID NO: 16), removes the […] of 5′-FDA, yielding the sugar 5′-fluorodeoxyribose. These three enzymes share a similarity of 26% in their amino acidic sequence, and contain a common domain, the PNP_UDP_1 domain (PF0148), belonging to the Phosphorylase superfamily. To test the activity of these two enzymes, they were overexpressed in P. putida and the cell extracts were incubated with the substrate 5′-FDA.

[3] = tested on: PNP FlB1; test: In vitro phosphorylase activity assay with cell extracts expressing FlB1; format: biochemical, Streptomyces sp. MA37; settings: 20 hours of incubation, extracts with plasmid pFB-T7FlB1(NHis)
Method: In vitro biofluorination was performed with the strain P. putida KT2440 harboring the plasmids pFB-PmflA1, pFB-PT7flB1(NHis), and pFB-PT7flA1, and pPS23 or pSEVA231-PT7pr as negative controls, respectively. Overnight cultures of the strains were diluted to an OD600 of 0.1 in fresh minimal medium, in 250-ml shake flasks. Cells were grown for six hours at 30° C. with shaking of 200 rpm, when they reached an OD600 between 0.4-0.6, after which they were induced with 3-MB 1 mM for the XylS/Pm system or 15 mM of NaF for the FRS-PT7. After 20 hours of incubation, all the volume of culture was centrifuged at 5000 rpm for 10 minutes at 4° C., and the supernatant was discarded. Cellular pellets were washed with Tris-HCl 50 mM pH7.8 and resuspended in a final volume of 3 ml. Cells were disrupted using glass beads in a bead beater, using a program of 6000 rpm for 20 seconds. […] Protein concentrations were determined using a Bradford assay, yielding a concentration of at least 1 mg/ml.
Similarly, for phosphorylase activity assays, 1 ml of the protein fraction from cultures expressing the phosphorylase was then mixed with 0.2 mM of 5′-FDA, in Tris-HCl 50 mM pH7.8. […] After 20 hours of incubation at 30° C., the rest of the reaction was inactivated as described before and the supernatant was taken and analyzed by HPLC. […]

[4] = target: T2, E. coli PNP, coded by the gene deoD (Escherichia coli, UniProt P0ABP8); test: In vitro conversion of 5′-FDA by cell extracts expressing DeoD; format: biochemical; settings: 20 hours
T2 construct: made in house; host or cells: Pseudomonas putida (pPS23 vector, XylS/Pm system; crude cell extract, not purified)
Method: as §1, §2

[5] = tested on: P. putida KT2440ΔcrcB; settings: data not shown
Method: Growth arrest by NaF in P. putida KT2440ΔcrcB was performed by diluting 20 times the overnight cultures in 10 mL of modified M9 minimal medium. Cells were grown in 96-well microtiter plates (flat bottom, Greiner Bio-one) at 30° C. and 200 rpm in an ELx808 microtiter plate reader (BioTek). After six hours of incubation, the cultures had reached an OD630 of 0.5, and the NaF was added at different concentrations. Cells exposed to the stressor were incubated in a microtiter plate reader for 24 hours, and growth was followed by measuring OD630 every 30 minutes. The concentrations of NaF used were 0, 0.05, 0.1, 0.5, 0.75, 1, 2 and 5 mM.
To explore the possibility of having a growth-decoupled platform for biofluorination, we tested the effect of NaF in the growth when added in mid-exponential phase.

[6] = tested on: F^− responsive riboswitch (FRS) from P. syringae; test: Expression assay, FRS constructs FRSv1-4 before msfGFP in P. putida KT2440; format: cell-based, Pseudomonas putida; settings: 0, 1, 5 and 15 mM of NaF
Method: Overnight cultures of P. putida KT2440 with plasmids pSEVA441-FRSv1, pSEVA441-FRSv2, pSEVA441-FRSv3, pSEVA441-FRSv4, or pSEVA441 as autofluorescence control, were diluted 40 times in 10 ml of minimal medium. […] Subsequently, kinetics of the growth and fluorescence, using wavelengths of excitation and emission of 485 nm and 528 nm, respectively, were performed using a SynergyMX (BioTek) microtiter plate reader for 20 hours. Measurements for kinetics were carried out every ten minutes and three independent biological replicates were carried out.
To check the performance of the riboswitch in P. putida KT2440 we cloned four different versions of the riboswitch before the fluorescent reporter protein msfGFP. In the constructions FRSv1 and FRSv2 we kept the original promoter of gene eriC^F, whereas in FRSv3 and FRSv4 we changed the promoter to a constitutive heterologous promoter, PEM7. In the constructions FRSv1 and FRSv3 we conserved the first 8 amino acids of the original eriC^F gene as well, whereas FRSv2 and FRSv4 started with the coding sequence of the msfGFP (FIG. 2).

[7] = tested on: P. putida KT2440; settings: minimal medium, A600 after 20 hours
Method: (§3) Overnight cultures of P. putida KT2440 and P. putida KT2440ΔcrcB were diluted 20 times in 10 mL of modified M9 minimal medium containing different concentrations of NaF. Cells were grown in 96-well microtiter plates (flat bottom, Greiner Bio-one) at 30° C. and 200 rpm in an ELx808 microtiter plate reader (BioTek). Cells exposed to NaF at various concentrations were incubated in a microtiter plate reader for 24 hours, and growth was followed by measuring OD630 every 30 minutes. The concentrations used for each strain were 0, 25, 50, 75, 125, 200 and 250 mM for P. putida KT2440, and 0, 0.1, 0.5, 1 and 5 mM for P. putida KT2440ΔcrcB.
(§4) The effect of the deletion of crcB on the growth in the presence of high concentrations of NaF in P. putida KT2440 was assessed by calculating the minimal inhibitory concentrations (MICs) of NaF needed to suppress the growth in both a wild-type and a ΔcrcB mutant.

[8] = tested on: P. putida KT2440ΔcrcB
Method: as §3, §4

[9] = tested on: FRS-PT7 system
Method: (§5) Overnight cultures of P. putida KT2440 with plasmids pSEVA441-FRSv1, pSEVA441-FRSv2, pSEVA441-FRSv3, pSEVA441-FRSv4, or pSEVA441 as autofluorescence control, were diluted 40 times in 10 ml of minimal medium. […] Subsequently, kinetics of the growth and fluorescence, using wavelengths of excitation and emission of 485 nm and 528 nm, respectively, were performed using a SynergyMX (BioTek) microtiter plate reader for 20 hours. Measurements for kinetics were carried out every ten minutes and three independent biological replicates were carried out. The same procedure was carried out with P. putida KT2440::FRS-T7RNAP and P. putida KT2440ΔcrcB::FRS-T7RNAP strains containing the plasmid pSEVA231-T7pr::msfGFP as well as with the plasmid pSEVA231-T7pr, used as an autofluorescence control.

[10] = tested on: FRS-PT7 system; test: Expression assay, FRS-PT7 system with PT7-msfgfp in P. putida KT2440ΔcrcB::FRS-T7RNAP; format: cell-based, Pseudomonas putida; settings: lower NaF concentrations than in the P. putida KT2440 background
Method: as §5

T2 sequence (P0ABP8 whole entry): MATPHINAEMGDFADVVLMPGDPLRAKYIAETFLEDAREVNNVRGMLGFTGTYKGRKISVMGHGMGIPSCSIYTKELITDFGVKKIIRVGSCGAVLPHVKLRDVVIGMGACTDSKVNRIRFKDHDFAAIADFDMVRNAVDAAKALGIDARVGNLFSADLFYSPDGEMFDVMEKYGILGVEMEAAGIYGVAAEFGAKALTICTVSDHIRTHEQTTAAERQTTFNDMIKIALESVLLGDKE
T1 sequence (P0AF12 whole entry): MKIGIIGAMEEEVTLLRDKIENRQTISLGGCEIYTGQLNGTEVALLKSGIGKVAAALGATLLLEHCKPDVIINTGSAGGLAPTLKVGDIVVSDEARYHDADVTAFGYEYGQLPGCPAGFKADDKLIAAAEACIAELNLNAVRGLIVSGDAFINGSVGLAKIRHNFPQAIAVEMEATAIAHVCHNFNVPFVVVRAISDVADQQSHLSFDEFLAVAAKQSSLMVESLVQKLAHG

For Cc1cccc(C(=O)O)c1 [3-MB, 3-methylbenzoate], the “Inducer concentration needed to achieve full expression” value [1] is listed as 0.5 mM.

In the case of Nc1ncnc2c1ncn2[C@@H]1O[C@H](CF)[C@@H](O)[C@H]1O [5′-FDA, 5′-fluoro-5′-deoxyadenosine], the “Consumption of substrate 5′-FDA (product 5′-fluorodeoxyribose detected by LC-MS)” value [2] is reported as “reduced or depleted completely”, the “Change of 5′-FDA concentration versus initial concentration” value [3] is reported as “a decrease in the concentration of 5′-FDA” and the “Consumption of substrate 5′-FDA (product 5′-FDRP detected by LC-MS)” value [4] is reported as “reduced or depleted completely”.

For [F-].[Na+] [NaF, Sodium fluoride], the Effect on growth ([5]; 0.5 mM of NaF added in mid-exponential phase) was “a decrease in the growth phase was found”, the Effect on growth ([5]; 1 mM of NaF added in mid-exponential phase) was “stopped cell growth almost completely” and the “Fluorescence response of the four FRS constructs” value [6] was “an increase of the fluorescence when higher concentrations of NaF were used”. For the same compound, the “NaF concentration in which the strain was able to thrive (MIC assay)” value [7] was 75 mM, the “Growth inhibition on plates” value ([8]; LB plates containing 0.5 and 1 mM of NaF) was “This effect was also seen” and the “NaF concentration at which the strain was not able to grow (MIC assay)” value ([8]; minimal medium, A600 after 20 hours) was 0.5 mM. For the same compound, the “Fluorescence response of the FRS-PT7 system” value ([9]; 0, 1 and 15 mM of NaF) was “led to an increase of the cells fluorescence”, the “Final growth of the cultures” value ([9]; NaF concentrations used for induction (up to 15 mM)) was “not affected” and the “Expression levels relative to the wild-type background” value [10] was “almost two times higher than in the wild-type background”.

For [Cl-].[Na+] [NaCl, reference compound], the “Effect on growth of the ΔcrcB mutant versus wild-type” value ([8]; same assays in the presence of NaCl, data not shown) was “no such effect was seen”.
